Results: article PMC8158703, “The Glitazone Class of Drugs as Carbonic Anhydrase Inhibitors—A Spin-Off Discovery from Fragment Screening” (Molecules, 2021)
Where a name gives a salt, the structure may show the parent alone.

Columns and labels:
[1] = target: T1, hCA II (Homo sapiens, UniProt P00918); assay: Stopped flow CO2 hydrase assay; format: biochemical; conditions: mean from three assays, errors ±10%
T1 construct: made in house
Experimental: (§1) In addition to the ubiquitous hCA II, all other catalytically active hCA enzymes (I, IV, VA, VB, VI, VII, IX, XII, XIII and XIV) were assessed, providing a comprehensive profile of CA enzyme inhibition, Table 2. […] Different CAs have different expression profiles and cell locations. […] A comparison between hCA VII and hCA II has identified 7 residue differences (S65A, Q67N, D69E, K91I, A135V, S136Q, S204L) among the 23 residues within the active site cavity.
(§2) An Applied Photophysics stopped-flow instrument was used for assaying the inhibition of the CA catalysed CO2 hydration reaction. […] The uncatalyzed rates were determined in the same manner and subtracted from the total observed rates. […] Inhibitor and enzyme solutions were preincubated together for 15 min at room temperature prior to assay to allow for the formation of the enzyme inhibitor complex. The inhibition constants were obtained by nonlinear least squares methods using PRISM 3 (GraphPad Software Inc, San Diego, CA, USA). […] The catalytic activity (in the absence of inhibitors) of the different enzymes was calculated from Lineweaver–Burk plots and represent the mean from at least three different determinations. […] Enzymes used here were recombinant ones, prepared and purified as described earlier.

[2] = target: T2, hCA I (Homo sapiens, UniProt P00915); assay: Stopped flow CO2 hydrase assay; format: biochemical; conditions: mean from three assays, errors ±10%
T2 construct: made in house
T2 sequence (P00915 whole entry): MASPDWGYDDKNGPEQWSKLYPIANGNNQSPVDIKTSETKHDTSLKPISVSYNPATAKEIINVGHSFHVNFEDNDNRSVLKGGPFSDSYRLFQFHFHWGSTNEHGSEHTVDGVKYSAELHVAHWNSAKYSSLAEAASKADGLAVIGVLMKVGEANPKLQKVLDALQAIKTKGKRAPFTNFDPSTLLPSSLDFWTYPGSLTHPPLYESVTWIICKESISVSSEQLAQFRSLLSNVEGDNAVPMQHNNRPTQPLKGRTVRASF
Experimental: as §1, §2

[3] = target: T3, hCA IX (Homo sapiens, UniProt Q16790); assay: Stopped flow CO2 hydrase assay; format: biochemical; conditions: mean from three assays, errors ±10%
T3 construct: made in house
Experimental: as §1, §2

[4] = target: T4, hCA IV (Homo sapiens, UniProt P22748); assay: Stopped flow CO2 hydrase assay; format: biochemical; conditions: mean from three assays, errors ±10%
T4 construct: made in house
T4 sequence (P22748 19-312): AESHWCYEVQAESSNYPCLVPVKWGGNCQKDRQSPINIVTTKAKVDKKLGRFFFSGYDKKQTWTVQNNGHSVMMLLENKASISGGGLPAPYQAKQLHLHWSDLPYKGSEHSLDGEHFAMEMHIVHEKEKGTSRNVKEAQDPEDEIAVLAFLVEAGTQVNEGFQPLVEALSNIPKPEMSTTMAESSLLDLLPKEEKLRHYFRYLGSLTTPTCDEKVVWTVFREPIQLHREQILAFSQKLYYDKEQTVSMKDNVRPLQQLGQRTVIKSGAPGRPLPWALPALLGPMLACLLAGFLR
Experimental: as §1, §2

[5] = target: T5, hCA XII (Homo sapiens, UniProt O43570); assay: Stopped flow CO2 hydrase assay; format: biochemical; conditions: mean from three assays, errors ±10%
T5 construct: made in house
T5 sequence (O43570 25-354): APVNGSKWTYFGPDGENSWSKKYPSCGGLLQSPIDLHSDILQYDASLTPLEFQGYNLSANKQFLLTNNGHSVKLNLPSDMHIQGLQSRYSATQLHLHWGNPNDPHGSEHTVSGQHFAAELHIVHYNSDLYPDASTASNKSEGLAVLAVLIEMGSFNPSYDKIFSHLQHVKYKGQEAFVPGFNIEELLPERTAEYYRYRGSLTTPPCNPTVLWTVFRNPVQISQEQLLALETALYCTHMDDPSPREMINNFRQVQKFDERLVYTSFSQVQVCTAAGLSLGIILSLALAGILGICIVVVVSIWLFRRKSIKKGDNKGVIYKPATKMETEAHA
Experimental: as §1, §2

[6] = target: T6, hCA VI (Homo sapiens, UniProt P23280); assay: Stopped flow CO2 hydrase assay; format: biochemical; conditions: mean from three assays, errors ±10%
T6 construct: made in house
T6 sequence (P23280 18-308): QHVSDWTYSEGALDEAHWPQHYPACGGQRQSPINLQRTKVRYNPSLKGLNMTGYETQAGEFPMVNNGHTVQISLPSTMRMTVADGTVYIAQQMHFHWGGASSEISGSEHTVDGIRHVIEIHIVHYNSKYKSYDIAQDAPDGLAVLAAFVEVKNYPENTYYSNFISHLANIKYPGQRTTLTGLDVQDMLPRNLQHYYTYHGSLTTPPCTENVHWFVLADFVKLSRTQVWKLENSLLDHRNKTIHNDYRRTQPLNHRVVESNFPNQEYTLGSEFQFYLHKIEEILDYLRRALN
Experimental: (§3) CA enzyme inhibition data was determined by measuring the CA-catalysed hydration of CO2 in the presence of 11–13. In addition to the ubiquitous hCA II, all other catalytically active hCA enzymes (I, IV, VA, VB, VI, VII, IX, XII, XIII and XIV) were assessed, providing a comprehensive profile of CA enzyme inhibition, Table 2. […]. Different CAs have different expression profiles and cell locations. […] A comparison between hCA VII and hCA II has identified 7 residue differences (S65A, Q67N, D69E, K91I, A135V, S136Q, S204L) among the 23 residues within the active site cavity. […] Here, we propose that this further extends to the minimal differences in observed active site compound binding strength between these isozymes. […]. Furthermore, they are considered a validated target for antiobesity drug development, in which they have been proposed to have an involvement in insulin secretion, however this mechanism is not yet fully understood. […]. The appreciable inhibition of the glitazones for the different CA isozymes highlights the potential for CA-mediated off-target effects of these drugs when used clinically, and given the reported polypharmacology observed for these compounds, this may provide an avenue for further understanding of their mechanism of action.
(§4) An Applied Photophysics stopped-flow instrument was used for assaying the inhibition of the CA catalysed CO2 hydration reaction. Phenol red (0.2 mM) was used as indicator, monitored at the absorbance maximum of 557 nm. Reactions were carried out in a HEPES (10 mM, pH 7.4) buffer and NaClO4 (10 mM), for maintaining the ionic strength constant, the ClO4^- anion is not inhibitory against most CA isoforms at 25 °C [62]. […]. Inhibitors were tested in the concentration range of 0.01 nM–100 μM, and at least six traces of the initial 5–10% of the reaction have been used for determining the initial velocity. The uncatalyzed rates were determined in the same manner and subtracted from the total observed rates. Stock solutions of inhibitor (1 mM) were prepared in distilled, deionized water with 10–20% (v/v) DMSO (which is not inhibitory at these concentrations), and dilutions were performed thereafter with the assay buffer. Inhibitor and enzyme solutions were preincubated together for 15 min at room temperature prior to assay to allow for the formation of the enzyme inhibitor complex. The inhibition constants were obtained by nonlinear least squares methods using PRISM 3 (GraphPad Software Inc, San Diego, CA, USA). […]. The catalytic activity (in the absence of inhibitors) of the different enzymes was calculated from Lineweaver–Burk plots and represent the mean from at least three different determinations. Enzyme concentrations in the assay system were in the range of 3.8–9.5 nM. Enzymes used here were recombinant ones, prepared and purified as described earlier.

[7] = target: T7, hCA XIII (Homo sapiens, UniProt Q8N1Q1); assay: Stopped flow CO2 hydrase assay; format: biochemical; conditions: mean from three assays, errors ±10%
T7 construct: made in house
T7 sequence (Q8N1Q1 whole entry): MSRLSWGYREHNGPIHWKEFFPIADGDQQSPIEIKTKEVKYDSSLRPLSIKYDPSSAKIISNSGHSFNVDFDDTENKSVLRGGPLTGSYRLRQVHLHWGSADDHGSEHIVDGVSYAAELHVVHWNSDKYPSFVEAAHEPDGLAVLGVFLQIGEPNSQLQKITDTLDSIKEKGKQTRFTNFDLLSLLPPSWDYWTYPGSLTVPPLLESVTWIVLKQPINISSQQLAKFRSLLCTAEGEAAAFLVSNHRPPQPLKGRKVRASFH
Experimental: as §3, §4

[8] = target: T8, hCA VB (Homo sapiens, UniProt Q9Y2D0); assay: Stopped flow CO2 hydrase assay; format: biochemical; conditions: mean from three assays, errors ±10%
T8 construct: made in house
T8 sequence (Q9Y2D0 34-317): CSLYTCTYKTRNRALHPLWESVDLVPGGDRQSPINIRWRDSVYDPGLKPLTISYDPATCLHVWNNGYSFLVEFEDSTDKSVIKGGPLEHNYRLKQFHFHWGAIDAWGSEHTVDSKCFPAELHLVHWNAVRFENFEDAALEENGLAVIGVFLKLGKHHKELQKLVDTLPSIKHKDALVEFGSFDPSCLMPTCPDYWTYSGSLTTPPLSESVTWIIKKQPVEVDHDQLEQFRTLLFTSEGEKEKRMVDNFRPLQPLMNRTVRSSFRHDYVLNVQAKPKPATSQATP
Experimental: as §3, §4

[9] = target: T9, hCA VA (Homo sapiens, UniProt P35218); assay: Stopped flow CO2 hydrase assay; format: biochemical; conditions: mean from three assays, errors ±10%
T9 construct: made in house
T9 sequence (P35218 39-305): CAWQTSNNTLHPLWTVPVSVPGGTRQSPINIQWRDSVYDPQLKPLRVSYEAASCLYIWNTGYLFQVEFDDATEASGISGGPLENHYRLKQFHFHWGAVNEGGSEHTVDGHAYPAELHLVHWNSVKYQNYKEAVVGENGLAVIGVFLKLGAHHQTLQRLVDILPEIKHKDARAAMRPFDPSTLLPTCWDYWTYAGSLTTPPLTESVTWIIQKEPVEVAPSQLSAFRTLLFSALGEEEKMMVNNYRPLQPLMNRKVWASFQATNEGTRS
Experimental: as §3, §4

[10] = target: T10, hCA XIV (Homo sapiens, UniProt Q9ULX7); assay: Stopped flow CO2 hydrase assay; format: biochemical; conditions: mean from three assays, errors ±10%
T10 construct: made in house
T10 sequence (Q9ULX7 16-337): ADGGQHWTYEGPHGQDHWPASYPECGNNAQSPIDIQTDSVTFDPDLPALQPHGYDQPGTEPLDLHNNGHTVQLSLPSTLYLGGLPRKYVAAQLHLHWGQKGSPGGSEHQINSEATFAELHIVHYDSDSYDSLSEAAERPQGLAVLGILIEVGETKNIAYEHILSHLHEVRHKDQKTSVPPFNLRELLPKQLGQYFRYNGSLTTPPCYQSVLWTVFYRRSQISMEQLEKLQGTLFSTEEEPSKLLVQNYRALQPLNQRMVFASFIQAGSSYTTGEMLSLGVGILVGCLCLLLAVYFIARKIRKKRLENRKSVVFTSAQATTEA
Experimental: as §3, §4

[11] = target: CA II; conditions: CA II hit fragments, SPR; cited from earlier work
[12] = target: T11, hCA VII (Homo sapiens, UniProt P43166); assay: Stopped flow CO2 hydrase assay; format: biochemical; conditions: mean from three assays, errors ±10%
T11 construct: made in house
T11 sequence (P43166 whole entry): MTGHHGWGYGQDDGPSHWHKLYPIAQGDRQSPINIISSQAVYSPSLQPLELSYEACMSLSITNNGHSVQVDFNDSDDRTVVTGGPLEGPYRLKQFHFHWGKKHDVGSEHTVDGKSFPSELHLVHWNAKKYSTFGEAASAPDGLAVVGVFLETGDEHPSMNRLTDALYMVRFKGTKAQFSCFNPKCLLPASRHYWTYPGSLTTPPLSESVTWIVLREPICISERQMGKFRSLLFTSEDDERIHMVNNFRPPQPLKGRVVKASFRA
Experimental: as §1, §2

Ki [1] [µM]	Ki [2] [µM]	Ki [3] [µM]	Ki [4] [µM]	Ki [6] [µM]	Ki [7] [µM]	Ki [8] [µM]	Ki [9] [µM]	Ki [10] [µM]	SMILES	Kd [11] [µM]	further results
1.3	57.2	1.3	> 100	46.7	32.3	28.9	12.4	16.8	Cc1c(C)c2c(c(C)c1O)CCC(C)(COc1ccc(CC3SC(=O)NC3=O)cc1)O2 (racemic) [Compound 11, (±)-5-[4-[(6-Hydroxy-2,5,7,8-tetramethylchroman-2-yl)methoxy]benzyl]-2,4-thiazolidinedione]		Ki [5]: 0.92 µM
									C/C(=C\C(=O)O)c1ccc(Cl)cc1 [Compound 1]	905	
									O=C(O)c1cccc(Oc2ccccc2)c1 [Compound 2]	1280	
									O=C(O)Cc1cccc(OCc2ccccc2)c1 [Compound 3]	1080	
									Cc1ccnc(S(N)(=O)=O)n1 [Compound 4]	1.4	
									Clc1ccccc1OCc1nn[nH]n1 [Compound 5]	631	
									Clc1ccc(OCc2nn[nH]n2)cc1 [Compound 6]	709	
									O=C(CSc1nnc[nH]1)c1ccccc1 [Compound 7]	194	
0.75	16.3	2.5	58.9	5.9	7.4	40.9	8.2	2.3	CN(CCOc1ccc(CC2SC(=O)NC2=O)cc1)c1ccccn1 (centres unmarked) [Compound 12, 5-[[4-[2-(methyl-2-pyridinylamino)ethoxy]phenyl]methyl]-2,4-thiazolidinedione]		Ki [12]: 6.1 µM; Ki [5]: 3.7 µM
7.1	39.6	0.75	92.1	19.8	21.5	36.2	5.3	6.6	CCc1ccc(CCOc2ccc(CC3SC(=O)NC3=O)cc2)nc1 (centres unmarked) [Compound 13, 5-[[4-[2-(5-ethyl-2-pyridinyl)ethoxy]phenyl]methyl]-2,4-thiazolidinedione monohydrochloride]		Ki [12]: 4.9 µM
